Several values for one entry are separate records, joined by “and”; a condition that tells them apart may be missing. Identical values can stand only once. Entries after “also recorded” stand apart in the source; their conditions may differ. Like-named read-outs stand apart in the source and are kept apart here.
Assays:
[1] = system: NO production in rat C6 glial cells; experiment: LPS-/cytokine-induced NO production (nitrite) in C6 glial cells; assay type: cell-based; conditions: for Nitrite / inhibition at 20000 µM: C6 glial cells, NAC 20 mM 2 h prior; for Nitrite: 24 h; for inhibition at 20000 µM: Rattus norvegicus, Glial cell
[2] = system: IL-1β production in rat macrophages; experiment: LPS-induced IL-1β production (ELISA) in rat macrophages; assay type: cell-based
[3] = system: cultured skin fibroblasts of X-ALD; experiment: VLCFA ratios (C26:0/C22:0, C24:0/C22:0) in X-ALD skin fibroblasts; assay type: cell-based, human; design: C24:0/C22:0: concentration or dose not given beside the values
[4] = system: IL-1β production in rat primary astrocytes; experiment: LPS-induced IL-1β production (ELISA) in rat primary astrocytes; assay type: cell-based
Experimental: (§1) Determination of TNF-α and IL-1β in culture supernatants Cells were stimulated with LPS in serum-free media for 24 h in the presence or absence of forskolin or rolipram, and concentrations of TNF-α and IL-1β were measured in culture supernatants by using high-sensitivity enzyme-linked immunosorbent assay (R&D Systems, USA) according to the manufacturer's instructions.

[5] = system: IL-6 production in rat primary microglia; experiment: LPS-induced IL-6 production (ELISA) in rat primary microglia; assay type: cell-based
[6] = system: TNF-α production in rat primary microglia; experiment: LPS-induced TNF-α production (ELISA) in rat primary microglia; assay type: cell-based
Experimental: as §1

iNOS = experiment: Expression of iNOS protein (immunoblot) and mRNA (Northern) in rat primary astrocytes; assay type: cell-based
Outline: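 Cells incubated 24 h with or without stimuli (cytokines or LPS). iNOS protein detected by immunoblot with anti-mouse macrophage iNOS antibody and [^125I]-protein A. Northern blot: 20 μg total RNA hybridised at 68° C with ^32P-cDNA probe; iNOS mRNA quantified densitometrically relative to GAPDH rehybridisation.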

[7] = system: NO production in rat primary microglia; experiment: LPS-induced NO production (nitrite) in rat primary microglia; assay type: cell-based
TNF-α = assay type: in vivo, Lewis rats
Experimental: One group of animals induced for EAE was left untreated while another group of animals was not induced for EAE and used as the control group.
Immunohistochemistry Brains were fixed in 10% buffered formalin (Stephens Scientific, Riverdale, N.J.). The tissues were embedded in paraffin and sectioned at 4 μm. Sections were then stained for various cytokines and cell markers as described below. For single-label immunohistochemistry, sections were incubated with either anti-iNOS antibody (1:100, rabbit polyclonal, Calbiochem, LaJolla, Calif.) or anti-TNF-α antibody (1:100, rabbit polyclonal, Genzyme, Cambridge, Mass.) or anti-IFN-γ antibody (1:200, rabbit polyclonal, Biosource International, Camarillo, Calif.) essentially as described for other antibodies (Hooper et al., 1997). The tissue sections were further incubated with FITC conjugated anti-rabbit IgG (1:100, Sigma, St. Louis, Mo.), mounted with mounting media (EMS) and analyzed by immunofluorescence microscopy (Olympus) using Adobe photoshop software. For immunofluorescent double-labeling, sections were incubated first with anti-iNOS (1:100) followed by macrophage marker ED1 (1:100, mouse monoclonal, Biosource International, Camarillo, Calif.). Anti-iNOS was visualized using TRITC conjugated anti-rabbit IgG—(1:100, Sigma, St. Louis, Mo.) and ED1 using FITC conjugated anti-mouse IgG (1:100, Sigma, St. Louis, Mo.). […]

[8] = system: rat primary microglia, oligodendrocytes and C6 glial cells; experiment: TNF-α-induced ceramide production in rat primary microglia, oligodendrocytes and C6 glial cells; assay type: cell-based; conditions: 10 mM NAC 1 h, TNF-α 50 ng/ml
[9] = Microglia, 10 μM lovastatin or 5 mM NaPA 8 h, then LPS 1.0 μg/ml, 24 h

CC[C@H](C)C(=O)O[C@H]1C[C@@H](C)C=C2C=C[C@H](C)[C@H](CC[C@@H]3C[C@@H](O)CC(=O)O3)[C@H]21 [Lovastatin]
LPS- and cytokine-induced NO production [1]: inhibit LPS- and cytokine-induced NO production in rat C6 glial cells
Production of IL-1β ([2]; Macrophages, 10 μM lovastatin or 5 mM NaPA 8 h, then LPS 1.0 μg/ml, 24 h): 2.3 ± 0.3 ng/24 h/mg protein
C24:0/C22:0 [3]: 1.25 ± 0.15 and 1.28 ± 0.21 and 1.31 ± 0.18 and 1.26 ± 0.16 and 1.29 ± 0.02
Production of IL-1β ([4]; Astrocytes, 10 μM lovastatin or 5 mM NaPA 8 h, then LPS 1.0 μg/ml, 24 h): 0.8 ± 0.1 ng/24 h/mg protein
Production of IL-6 [5, 9]: 7.8 ± 1.1 ng/24 h/mg protein
Production of TNF-α [6, 9]: 0.9 ± 0.1 ng/24 h/mg protein
LPS-mediated induction of iNOS protein and mRNA (iNOS; LPS 1.0 μg/ml): significantly inhibited the LPS-mediated induction of iNOS protein and mRNA
Production of NO [7, 9]: 5.9 ± 0.4 nmol/24 h/mg protein

CC(=O)N[C@@H](CS)C(=O)O [NAC, N-acetyl cysteine]
Nitrite ([1]; stimulus LPS + IFN-γ): 8.2 ± 1.4 nmol/mg/24 h
Nitrite ([1]; stimulus LPS + IL-1β): 5.8 ± 1.2 nmol/mg/24 h
Nitrite ([1]; stimulus LPS + TNF-α): 7.1 ± 1.1 nmol/mg/24 h
Nitrite ([1]; stimulus TNF-α + IFN-γ): 8.4 ± 2.1 nmol/mg/24 h
Nitrite ([1]; stimulus TNF-α + IL-1β): 4.2 ± 0.8 nmol/mg/24 h
inhibition at 20000 µM ([1]; stimulus LPS + IFN-γ): 74%
inhibition at 20000 µM ([1]; stimulus LPS + IL-1β): 75%
inhibition at 20000 µM ([1]; stimulus LPS + TNF-α): 79%
inhibition at 20000 µM ([1]; stimulus TNF-α + IFN-γ): 73%
inhibition at 20000 µM ([1]; stimulus TNF-α + IL-1β): 80%
expression of TNF-α in EAE brain (TNF-α; daily i.p. treatment from day 1): blocked the induction of TNF-α
TNF-α-induced production of ceramide [8]: potently blocked the TNF-α-induced production of ceramide in microglia, oligodendrocytes and C6 glial cells; also recorded: potently blocked the TNF-α-induced production of ceramide in microglia, oligodendrocytes, and C6 glial cells

O=C([O-])Cc1ccccc1.[Na+] [NaPA, sodium salt of phenylacetic acid]
expression of TNF-α in EAE brain (TNF-α; rat, in vivo, ip): blocked the induction of TNF-α
cytotoxicity at higher doses (X-ALD fibroblasts): cytotoxic to the X-ALD fibroblasts
Production of IL-1β [2]: 3.1 ± 0.4 ng/24 h/mg protein and 3.1 ± .4 ng/24 h/mg protein
ratios of C26:0/C22:0 and C24:0/C22:0 / level of VLCFA [3]: almost to the normal level after 15 days of treatment
Production of IL-1β [4]: 1.1 ± 0.2 ng/24 h/mg protein
Production of IL-6 [5]: 9.3 ± 1.2 ng/24 h/mg protein
Production of TNF-α [6]: 1.3 ± 0.2 ng/24 h/mg protein
LPS-mediated induction of iNOS protein and mRNA (iNOS): significantly inhibited the LPS-mediated induction of iNOS protein and mRNA
Production of NO [7]: 6.9 ± 0.9 nmol/24 h/mg protein

Reference: patent publication US8507219B2, “Method of treating inflammation with statins” (MUSC Foundation for Research Development, priority 1997, dated 2013)
